Experimental data reported in US20110207773A1, “NOVEL PHENYL-QUINOLINE-CARBOXYLIC ACID PYRIDINE DERIVATIVES USEFUL AS MODULATORS OF NICOTINIC ACETYLCHOLINE RECEPTORS” (NEUROSEARCH A/S, priority 2008, published 2011).

How the values were obtained:
[1] = target: T1, wild-type nAChR α7 receptors (Homo sapiens, UniProt P36544); experiment: Positive modulation of nAChR α7 currents in Xenopus laevis oocytes, two-electrode voltage clamp; assay type: cell-based; conditions: nAChR α7 expressed in Xenopus laevis oocytes, clamped at −60 mV, 100 μM acetylcholine; for Emax: (test-control)/control×100%, read-out: calculated EC50 Imax (maximal modulation of the control response); for EC50: test compound 0.01-31.6 μM, read-out: calculated EC50 (positive modulation of acetylcholine-induced current)
T1 construct: expressed in transfected cells; host or cells: Xenopus laevis oocytes
T1 sequence (P36544 23-502): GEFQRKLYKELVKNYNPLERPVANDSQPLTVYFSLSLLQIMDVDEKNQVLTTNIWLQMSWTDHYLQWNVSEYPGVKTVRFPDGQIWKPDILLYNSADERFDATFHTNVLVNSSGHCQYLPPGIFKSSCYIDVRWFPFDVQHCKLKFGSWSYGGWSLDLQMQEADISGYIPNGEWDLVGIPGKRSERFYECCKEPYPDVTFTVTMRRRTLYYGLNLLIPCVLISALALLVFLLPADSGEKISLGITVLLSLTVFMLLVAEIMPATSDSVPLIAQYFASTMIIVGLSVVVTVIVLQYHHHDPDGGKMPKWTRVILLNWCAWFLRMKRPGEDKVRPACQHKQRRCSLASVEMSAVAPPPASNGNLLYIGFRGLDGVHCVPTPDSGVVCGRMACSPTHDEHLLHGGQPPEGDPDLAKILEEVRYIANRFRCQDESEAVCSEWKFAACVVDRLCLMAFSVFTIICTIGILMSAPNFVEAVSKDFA
Procedure: In this example the positive modulation of wild-type nAChR α7 receptors by Compounds 4 and 5, representative of the invention, was determined using nAChR α7 receptors heterologously expressed in Xenopus laevis oocytes.
The electrical current through the nAChR α7 channel was measured using conventional two-electrode voltage clamp and nAChR α7 currents were activated by applying pulses of agonist-containing solution onto the nAChR α7 expressing oocyte.
In brief, the oocytes were placed in a recording chambers and continuously super-fused with an Oocyte Ringer (OR) solution containing 90 mM NaCl, 2.5 mM KCl, 2.5 mM CaCl2, 1 mM MgCl2 and 5 mM HEPES (pH adjusted to 7.4). The oocytes were clamped at −60 mV and currents were induced by applying 20 s pulses of 100 μM acetylcholine dissolved in OR. The intervals between the acetylcholine applications were 5 minutes, during which the oocytes were washed with OR. The first three applications were control applications to insure a constant response level of 100 μM acetylcholine. For the subsequent test applications, increasing concentrations (0.01-31.6 μM) of the test compound were applied 30 s before and during the acetylcholine (100 μM) application, which caused a robust increase in the acetylcholine-induced current amplitude.
The positive modulation in the presence of Compound 4 was calculated as (test-control)/control×100% and the concentration response curve for this positive modulation was fitted to the sigmoidal logistic equation: I=Imax/(1+(EC50/[compound])^n), where Imax represents the maximal modulation of the control response, EC50 is the concentration causing a half maximal response, and n is the slope coefficient.

| SMILES | Emax [1] [%] | EC50 [1] [nM] | melting point [°C] |
| --- | --- | --- | --- |
| COc1ccc(-c2cc(C(=O)Nc3cccc(F)n3)c3ccccc3n2)cc1 [Compound 4, 2-(4-Methoxy-phenyl)-quinoline-4-carboxylic acid (6-fluoro-pyridin-2-yl)-amide] | 283 | 3700 | – |
| COc1ccc(-c2cc(C(=O)Nc3cccc(F)n3)c3ccccc3n2)cc1OC [Compound 5, 2-(3,4-Dimethoxy-phenyl)-quinoline-4-carboxylic acid (6-fluoro-pyridin-2-yl)-amide] | 197 | 1200 | – |
| Cc1ccc(NC(=O)c2cc(-c3ccc(Br)cc3)nc3ccccc23)nc1 [Compound 7, 2-(4-Bromo-phenyl)-quinoline-4-carboxylic acid (5-methyl-pyridin-2-yl)-amide] | – | – | 182.4 to 183.7 |
| COc1ccc(-c2cc(C(=O)Nc3cccc(F)n3)c3cccc(F)c3n2)cc1 [Compound 8, 8-Fluoro-2-(4-methoxy-phenyl)-quinoline-4-carboxylic acid (6-fluoro-pyridin-2-yl)-amide] | – | – | 201.8 to 202.8 |
| O=C(Nc1cccc(F)n1)c1cc(-c2ccc(O)cc2)nc2c(F)cccc12 [Compound 9, 8-Fluoro-2-(4-hydroxy-phenyl)-quinoline-4-carboxylic acid (6-fluoro-pyridin-2-yl)-amide] | – | – | 254 to 256 |
| COc1ccc(-c2cc(C(=O)Nc3cccc(F)n3)c3cc(F)ccc3n2)cc1 [Compound 10, 6-Fluoro-2-(4-methoxy-phenyl)-quinoline-4-carboxylic acid (6-fluoro-pyridin-2-yl)-amide] | – | – | 161.2 to 162.9 |
| O=C(Nc1cccc(F)n1)c1cc(-c2ccc3c(c2)OCCO3)nc2ccccc12 [Compound 13, 2-(2,3-Dihydro-benzo[1,4]dioxin-6-yl)-quinoline-4-carboxylic acid (6-fluoro-pyridin-2-yl)-amide] | – | – | 209.9 to 210.6 |
